Reference: PMC3485666 (British Journal of Pharmacology, 2012)

Key:
S1P1 receptors = conditions: ref Piali et al., 2011; cited from earlier work
human S1P2 receptors = human S1P2 receptors (Homo sapiens, UniProt O95136); test: GTPγ[35S] binding assay, human S1P2; format: biochemical
clinical = conditions: both, human, in vivo, Complete wash-out (five effective half-lives) after treatment discontinuation
[1] = biological target: myc-tagged human S1P1 receptors (Homo sapiens, UniProt P21453); test: Agonist-mediated internalization of S1P1 receptors in CHO cells by flow cytometry; format: cell-based; conditions: for Internalization of S1P1 receptors: 1 h incubation; for S1P1 receptors localized intracellularly: 1 h incubation followed by 3 h without compound
[2] = test system: leukocyte subsets in whole blood; test: Phase I multiple-dose study: leukocyte subsets by flow cytometry; format: in vivo, human; conditions: 10 mg
human S1P1 receptors = human S1P1 receptors (Homo sapiens, UniProt P21453); test: GTPγ[35S] binding assay, human S1P1; format: biochemical
human S1P3 receptors = human S1P3 receptors (Homo sapiens, UniProt Q99500); test: GTPγ[35S] binding assay, human S1P3; format: biochemical
[3] = test system: peripheral absolute lymphocyte count (ALC); test: Phase I multiple-dose study: absolute lymphocyte count; format: in vivo, human; conditions: for Difference in mean %Emax of ALC, BAF312 versus placebo: 28 days, ANCOVA; for Average time to reach the lower limit of the normal ALC range after stopping dosing at steady state: predicted by pharmacokinetic/pharmacodynamic model
[4] = test system: experimental autoimmune encephalomyelitis (EAE); test: Chronic EAE in DA rats, therapeutic dosing; format: in vivo; conditions: DA rat, days 11–34
human S1P5 receptors = human S1P5 receptors (Homo sapiens, UniProt Q9H228); test: GTPγ[35S] binding assay, human S1P5; format: biochemical; conditions: read-out: %Emax (percentage of maximum stimulation), S1P5
human S1P4 receptors = biological target: T1, human S1P4 receptors (Homo sapiens, UniProt O95977); test: GTPγ[35S] binding assay, human S1P4; format: biochemical; conditions: read-out: %Emax (percentage of maximum stimulation)
T1 sequence (O95977 1-384): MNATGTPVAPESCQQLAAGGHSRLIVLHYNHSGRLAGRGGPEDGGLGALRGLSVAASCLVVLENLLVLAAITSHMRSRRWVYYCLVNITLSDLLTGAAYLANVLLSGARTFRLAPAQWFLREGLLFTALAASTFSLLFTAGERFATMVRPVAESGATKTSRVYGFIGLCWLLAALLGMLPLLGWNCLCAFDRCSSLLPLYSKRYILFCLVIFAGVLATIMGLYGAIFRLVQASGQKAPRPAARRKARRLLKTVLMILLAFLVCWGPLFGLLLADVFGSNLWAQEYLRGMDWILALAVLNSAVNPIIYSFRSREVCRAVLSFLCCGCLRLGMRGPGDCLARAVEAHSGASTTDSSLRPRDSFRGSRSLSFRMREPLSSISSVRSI

[5] = Phase I multiple-dose study: plasma pharmacokinetics; conditions: for AUCτ / concentration at 28 day / half-life at 28 day: geometric mean [%CV]; for Cmax at 28 day / Tmax / Tmax at 28 day / concentration at 28 day / half-life at 28 day / Cmax / half-life: both, human, plasma, oral; for half-life at 28 day: based on drug accumulation at steady-state
heart rate = test: Phase I multiple-dose study: heart rate (Holter monitoring); format: in vivo, human; conditions: for Decrease in mean heart rate Emax0-24 versus placebo: day 1; for Mean heart rate reduction from time-matched day −1: 2 h post dose of day 1
healthy subjects = test: Phase I multiple-dose study: safety and tolerability; format: in vivo, human
[6] = biological target: GIRK channels in human atrial myocytes (Homo sapiens, UniProt P21453); test: Electrophysiological recordings of GIRK current in human atrial myocytes; format: cell-based; conditions: S1P versus BAF312
Chain of GIRK channels in human atrial myocytes (P21453 whole entry): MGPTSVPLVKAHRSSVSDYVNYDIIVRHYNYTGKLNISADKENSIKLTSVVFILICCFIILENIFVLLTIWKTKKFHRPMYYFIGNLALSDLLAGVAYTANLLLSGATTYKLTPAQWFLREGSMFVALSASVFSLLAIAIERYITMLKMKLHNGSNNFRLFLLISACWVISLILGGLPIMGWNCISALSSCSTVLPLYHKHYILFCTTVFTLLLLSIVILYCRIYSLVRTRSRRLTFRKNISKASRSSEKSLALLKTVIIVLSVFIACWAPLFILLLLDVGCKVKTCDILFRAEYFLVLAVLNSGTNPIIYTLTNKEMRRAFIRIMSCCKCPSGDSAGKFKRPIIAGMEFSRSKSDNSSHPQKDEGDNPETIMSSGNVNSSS
Chain of GIRK channels in human atrial myocytes (P48549 whole entry partner): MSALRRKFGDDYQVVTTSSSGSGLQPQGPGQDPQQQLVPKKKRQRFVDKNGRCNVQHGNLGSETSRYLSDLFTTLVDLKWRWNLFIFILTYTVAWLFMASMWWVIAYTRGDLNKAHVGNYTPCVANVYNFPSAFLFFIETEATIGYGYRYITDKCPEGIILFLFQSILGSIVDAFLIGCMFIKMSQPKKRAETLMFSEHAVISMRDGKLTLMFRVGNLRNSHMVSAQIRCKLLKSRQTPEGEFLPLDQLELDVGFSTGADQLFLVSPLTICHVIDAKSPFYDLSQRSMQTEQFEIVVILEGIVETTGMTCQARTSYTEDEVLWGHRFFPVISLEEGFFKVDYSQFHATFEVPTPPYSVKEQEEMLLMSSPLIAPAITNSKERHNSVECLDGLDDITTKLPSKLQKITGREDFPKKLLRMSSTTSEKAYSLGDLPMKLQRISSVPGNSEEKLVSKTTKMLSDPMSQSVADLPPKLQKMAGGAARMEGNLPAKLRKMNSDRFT
Chain of GIRK channels in human atrial myocytes (P48544 whole entry partner): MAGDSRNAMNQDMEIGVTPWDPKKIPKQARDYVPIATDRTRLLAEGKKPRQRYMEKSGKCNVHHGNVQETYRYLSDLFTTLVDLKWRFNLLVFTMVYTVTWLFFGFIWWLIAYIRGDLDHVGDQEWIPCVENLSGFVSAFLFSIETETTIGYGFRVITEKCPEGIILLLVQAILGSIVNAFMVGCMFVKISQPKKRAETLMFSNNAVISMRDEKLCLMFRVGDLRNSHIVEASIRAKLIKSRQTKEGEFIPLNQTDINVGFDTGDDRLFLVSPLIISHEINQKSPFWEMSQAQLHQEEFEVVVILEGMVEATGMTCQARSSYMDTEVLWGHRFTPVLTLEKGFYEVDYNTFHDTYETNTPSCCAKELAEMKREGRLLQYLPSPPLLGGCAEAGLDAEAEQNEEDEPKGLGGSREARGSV

Chain of myc-tagged human S1P1 receptors (P21453 whole entry): as the sequence (P21453 whole entry) above
Chain of human S1P3 receptors (Q99500 whole entry): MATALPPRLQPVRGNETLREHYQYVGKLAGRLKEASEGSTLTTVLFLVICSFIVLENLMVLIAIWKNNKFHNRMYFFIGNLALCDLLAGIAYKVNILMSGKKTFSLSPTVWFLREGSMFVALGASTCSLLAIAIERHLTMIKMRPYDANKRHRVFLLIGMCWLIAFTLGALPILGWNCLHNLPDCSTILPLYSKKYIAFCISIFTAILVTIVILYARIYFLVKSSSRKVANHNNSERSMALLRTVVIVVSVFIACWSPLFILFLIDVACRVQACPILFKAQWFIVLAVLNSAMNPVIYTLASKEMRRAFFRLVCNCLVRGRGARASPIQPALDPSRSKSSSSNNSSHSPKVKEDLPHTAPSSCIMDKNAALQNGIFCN
Chain of human S1P1 receptors (P21453 whole entry): as the sequence (P21453 whole entry) above
Chain of human S1P5 receptors (Q9H228 whole entry): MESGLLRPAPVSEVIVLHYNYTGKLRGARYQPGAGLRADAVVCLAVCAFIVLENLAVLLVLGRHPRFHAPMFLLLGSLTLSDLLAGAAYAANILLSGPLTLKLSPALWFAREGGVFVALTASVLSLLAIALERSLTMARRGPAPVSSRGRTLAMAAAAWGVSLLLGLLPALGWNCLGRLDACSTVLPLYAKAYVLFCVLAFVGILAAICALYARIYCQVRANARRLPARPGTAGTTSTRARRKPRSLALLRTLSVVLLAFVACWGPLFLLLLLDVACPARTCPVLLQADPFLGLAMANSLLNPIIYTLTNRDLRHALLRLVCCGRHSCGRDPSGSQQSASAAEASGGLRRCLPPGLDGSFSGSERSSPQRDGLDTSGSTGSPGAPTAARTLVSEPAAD
Chain of human S1P2 receptors (O95136 whole entry): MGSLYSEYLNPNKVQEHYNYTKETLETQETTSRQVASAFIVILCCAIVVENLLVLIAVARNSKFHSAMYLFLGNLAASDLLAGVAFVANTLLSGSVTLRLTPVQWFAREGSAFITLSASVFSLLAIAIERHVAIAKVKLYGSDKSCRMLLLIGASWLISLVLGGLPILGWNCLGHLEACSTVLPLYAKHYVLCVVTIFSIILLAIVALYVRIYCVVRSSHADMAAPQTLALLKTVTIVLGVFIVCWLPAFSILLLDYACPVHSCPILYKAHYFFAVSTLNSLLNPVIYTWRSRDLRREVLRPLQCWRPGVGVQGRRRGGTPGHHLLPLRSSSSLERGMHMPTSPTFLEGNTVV

Compound: CCC/N=C1\S/C(=C\c2ccc(OC[C@H](O)CO)c(Cl)c2)C(=O)N1c1ccccc1C [ponesimod]
- Selectivity of S1P1 versus S1P3 (full agonist) (S1P1 receptors): 20 fold
- Selectivity of S1P1 versus S1P5 (partial agonist) (S1P1 receptors): 10 fold

Compound: CCc1cc(/C(C)=N/OCc2ccc(C3CCCCC3)c(C(F)(F)F)c2)ccc1CN1CC(C(=O)O)C1 [BAF312, 1-(4-{1-[(E)-4-cyclohexyl-3-trifluoromethylbenzyloxyimino]-ethyl}-2-ethylbenzyl)-azetidine-3-carboxylic acid]
- EC50 (human S1P2 receptors): > 10000 nM
- half-life (clinical): 151 h
- Internalization of S1P1 receptors ([1]; 10 nM, 2 experiments): 86 ± 4%
- Internalization of S1P1 receptors ([1]; 100 nM, 2 experiments): 99 ± 3%
- S1P1 receptors localized intracellularly ([1]; 1 µM, mean ± SD): 87 ± 0.5%
- Internalization of S1P1 receptors ([1]; 1 µM, mean ± SD): 91 ± 4%
- Surface expression of S1P1 receptors ([1]; incubated for up to 12 h without compound (data not shown)): remained low
- Effect on B and T cell counts ([2]; baseline to end of treatment): strong reduction in cell counts
- Effect on monocyte counts ([2]; baseline to end of treatment): Little or no effect
- Leukocyte subset cell counts after discontinuation ([2]; three weeks after discontinuation (data not shown)): returned to baseline levels
- EC50 (human S1P1 receptors): 0.39 ± 0.07 nM
- EC50 (human S1P3 receptors): > 1000 nM
- Difference in mean %Emax of ALC, BAF312 versus placebo ([3]; 0.3 mg once daily, 90% CI in parentheses): 32.8%
- Difference in mean %Emax of ALC, BAF312 versus placebo ([3]; 1 mg once daily): 61.6%
- Average time to reach the lower limit of the normal ALC range after stopping dosing at steady state ([3]; 1 mg): approximately 24 h
- Difference in mean %Emax of ALC, BAF312 versus placebo ([3]; 2.5 mg once daily): 56.7%
- Difference in mean %Emax of ALC, BAF312 versus placebo ([3]; 10 mg once daily): 74.6%
- Average time to reach the lower limit of the normal ALC range after stopping dosing at steady state ([3]; 10 mg): ~123 h
- Difference in mean %Emax of ALC, BAF312 versus placebo ([3]; 20 mg once daily): 76.1%
- Time of maximal ALC reduction post dose ([3]; day 1, healthy subjects): 4 to 6 h
- Study day by which ALC returned to the normal range ([3]; treatment stopped on day 28, dose groups 0.3–10 mg): ≤ 35 days
- Disease scores (AUC from days 12 to 34) versus vehicle ([4]; 0.03 mg·kg^−1 oral once daily): borderline effect
- Disease scores (AUC from days 12 to 34) versus vehicle ([4]; 0.3 mg·kg^−1 oral once daily): significant reduction
- Disease scores (AUC from days 12 to 34) versus vehicle ([4]; 3 mg·kg^−1 oral once daily): significant reduction
- Emax (human S1P5 receptors): ~100%
- Emax (human S1P4 receptors): 90 ± 9%
- AUC0–24 h ([5]; Day 1, 0.3 mg·day^−1): 36.2 [10] h^*ng·mL^−1
- AUC0–24 h ([5]; Day 1, 1 mg·day^−1): 136 [8] h^*ng·mL^−1
- AUC0–24 h ([5]; Day 1, 2.5 mg·day^−1): 293 [85] h^*ng·mL^−1
- AUC0–24 h ([5]; Day 1, 10 mg·day^−1): 1370 [11] h^*ng·mL^−1
- AUC0–24 h ([5]; Day 1, 20 mg·day^−1): 2740 [14] h^*ng·mL^−1
- AUCτ ([5]; Day 28, 0.3 mg·day^−1): 97.9 [19] h^*ng·mL^−1
- AUCτ ([5]; Day 28, 1 mg·day^−1): 282 [16] h^*ng·mL^−1
- AUCτ ([5]; Day 28, 2.5 mg·day^−1): 692 [45] h^*ng·mL^−1
- AUCτ ([5]; Day 28, 10 mg·day^−1): 2580 [24] h^*ng·mL^−1
- Cmin,ss ([5]; Day 28, 20 mg·day^−1, arithmetic mean (SD)): 166 (88.0) ^D ng·mL^−1
- AUCτ ([5]; Day 28, 20 mg·day^−1): 6370 [23] h^*ng·mL^−1
- Cmax at 28 day ([5]; 0.3 mg·day^−1): 5.31 ng/mL
- Tmax ([5]; 0.3 mg·day^−1): 3 h
- Tmax at 28 day ([5]; 0.3 mg·day^−1): 3.5 h
- concentration at 28 day ([5]; 0.3 mg·day^−1, Cavg, ss, Day 28, 0.3 mg·day^−1): 4.08 ng/mL
- concentration at 28 day ([5]; 0.3 mg·day^−1, Cmin,ss, Day 28, 0.3 mg·day^−1): 2.83 ng/mL
- half-life at 28 day ([5]; 0.3 mg·day^−1, Effective T1/2, Day 28, 0.3 mg·day^−1): 36.2 h
- Cmax ([5]; 1 mg·day^−1): 8.01 ng/mL
- Cmax at 28 day ([5]; 1 mg·day^−1): 14.9 ng/mL
- Tmax ([5]; 1 mg·day^−1): 4.5 h
- Tmax at 28 day ([5]; 1 mg·day^−1): 3 h
- concentration at 28 day ([5]; 1 mg·day^−1, Cavg, ss, Day 28, 1 mg·day^−1): 11.7 ng/mL
- concentration at 28 day ([5]; 1 mg·day^−1, Cmin,ss, Day 28, 1 mg·day^−1): 7.74 ng/mL
- half-life at 28 day ([5]; 1 mg·day^−1, Effective T1/2, Day 28, 1 mg·day^−1): 25.2 h
- Cmax ([5]; 2.5 mg·day^−1): 17.4 ng/mL
- Cmax at 28 day ([5]; 2.5 mg·day^−1): 38.3 ng/mL
- Tmax ([5]; 2.5 mg·day^−1): 3 h
- Tmax at 28 day ([5]; 2.5 mg·day^−1): 4 h
- concentration at 28 day ([5]; 2.5 mg·day^−1, Cavg, ss, Day 28, 2.5 mg·day^−1): 28.8 ng/mL
- concentration at 28 day ([5]; 2.5 mg·day^−1, Cmin,ss, Day 28, 2.5 mg·day^−1): 15.2 ng/mL
- Cmax ([5]; 10 mg·day^−1): 84.1 ng/mL
- Cmax at 28 day ([5]; 10 mg·day^−1): 147 ng/mL
- Tmax ([5]; 10 mg·day^−1): 3 h
- Tmax at 28 day ([5]; 10 mg·day^−1): 3 h
- concentration at 28 day ([5]; 10 mg·day^−1, Cavg, ss, Day 28, 10 mg·day^−1): 107 ng/mL
- concentration at 28 day ([5]; 10 mg·day^−1, Cmin,ss, Day 28, 10 mg·day^−1): 70.6 ng/mL
- half-life at 28 day ([5]; 10 mg·day^−1, Effective T1/2, Day 28, 10 mg·day^−1): 21.9 h
- Cmax ([5]; 20 mg·day^−1): 162 ng/mL
- Cmax at 28 day ([5]; 20 mg·day^−1): 359 ng/mL
- Tmax ([5]; 20 mg·day^−1): 4 h
- Tmax at 28 day ([5]; 20 mg·day^−1): 3 h
- concentration at 28 day ([5]; 20 mg·day^−1, Cavg, ss, Day 28, 20 mg·day^−1): 265 ng/mL
- half-life at 28 day ([5]; 20 mg·day^−1, Effective T1/2, Day 28, 20 mg·day^−1): 28.8 h
- half-life ([5]; Effective elimination half-life based on drug accumulation at steady state, range over dose groups): 22 to 38 h
- half-life ([5]; Effective elimination half-life, mean, mean over dose groups): 30 h
- Dose proportionality of pharmacokinetics ([5]; dose range of 0.3 to 20 mg): increase proportionally with the dose
- Time to steady-state concentrations ([5]; multiple once-daily administration): approximately 6 days
- Decrease in mean heart rate Emax0-24 versus placebo (heart rate; 0.3 mg, 90% CI in brackets, not significant): −0.92 bpm
- Decrease in mean heart rate Emax0-24 versus placebo (heart rate; 1 mg): −6.41 bpm
- Decrease in mean heart rate Emax0-24 versus placebo (heart rate; 2.5 mg): −5.44 bpm
- Mean heart rate reduction from time-matched day −1 (heart rate; 10 mg): approximately 24 ± 6 bpm
- Decrease in mean heart rate Emax0-24 versus placebo (heart rate; 10 mg): −13.88 bpm
- Mean heart rate reduction from time-matched day −1 (heart rate; 20 mg): ~29 ± 10 bpm
- Subjects with asymptomatic second degree atrioventricular (AV) block (heart rate; active groups, each on day 1): three
- Time of maximum decrease in mean ventricular heart rate post dose (heart rate; day 1, all (0.3–20 mg) doses): ~2 h
- Subjects experiencing AEs (healthy subjects; 0.3 mg dose group): three
- Subjects experiencing AEs (healthy subjects; 1 mg dose group): three
- Subjects experiencing AEs (healthy subjects; 2.5 mg dose group): four
- Subjects experiencing AEs (healthy subjects; 10 mg dose group): six
- Subjects experiencing AEs (healthy subjects; 20 mg dose group): six
- Macular oedema by ocular coherence tomography (healthy subjects; 0.3–20 mg once daily, 28 days): no signs of macular oedema
- Tolerability (healthy subjects; 0.3–20 mg once daily, 28 days, healthy subjects): well tolerated
- Elevations in alanine aminotransferase level (healthy subjects; by dose group): occurred most frequently in subjects in the BAF312 20 mg dose group
- Pulmonary function tests versus placebo (healthy subjects; not related to dose and day (data not shown)): mild to moderate, statistically significant decreases
- Visual acuity scores over treatment days (healthy subjects; regardless of the dose): no notable changes
- Serious AEs (healthy subjects; whole trial): no serious AEs

Compound: CCCCCCCCCCCCC/C=C/[C@@H](O)[C@@H](N)COP(=O)(O)O [S1P, sphingosine 1-phosphate, reference compound]
- S1P1 receptors localized intracellularly ([1]; 1 µM, mean ± SD): 9 ± 9%
- Internalization of S1P1 receptors ([1]; 1 µM, mean ± SD): 48 ± 12%
- Potency in activating GIRK current relative to BAF312 [6]: approximately 8 times
